Laboratory results reported in ChEMBL document CHEMBL4673265, “The food-grade antimicrobial xanthorrhizol targets the enoyl-ACP reductase (FabI) in Escherichia coli” (Bioorg Med Chem Lett, 2020).
Changes are numbered by the printed parent chain. pIC50: −log10 of the molar value. ≈ marks a conversion by molar mass, not a printed value. Calls of active or inactive are those of the source. The calls are words filed in the database; no cut-off is given here.

How the values were obtained:
Escherichia coli [1] = assay: Ratio of MIC for antimicrobial activity against Escherichia coli W3110 imp4213 expressing fabI392 pCA24N fabI F204V mutant assessed as absence of growth to MIC for antimicrobial activity against Escherichia coli W3110 imp4213 expressing fabI392 mutant assessed as absence of growth; format: functional
Escherichia coli [2] = assay: Ratio of MIC for antimicrobial activity against Escherichia coli W3110 imp4213 expressing fabI392 pCA24N fabI F203L mutant assessed as absence of growth to MIC for antimicrobial activity against Escherichia coli W3110 imp4213 expressing fabI392 mutant assessed as absence of growth; format: functional
Escherichia coli [3] = assay: Antimicrobial activity against triclosan resistance-induced Escherichia coli W3110 assessed as absence of growth; format: functional
Escherichia coli [4] = assay: Antimicrobial activity against wild type Escherichia coli W3110 assessed as absence of growth; format: functional
Plasmodium falciparum = assay: Binding affinity to Plasmodium falciparum FabI Y156V mutant assessed as fluorescence quenching by fluorescence spectral analysis
[5] = Drug uptake in Escherichia coli W3110 at 8 ug/ml incubated for 2 hrs (Rvb (wash control) = 1.88 pM); format: ADME; settings: dose 8 µg/ml
[6] = Drug uptake in Escherichia coli W3110 imp4213 mutant at 8 ug/ml incubated for 2 hrs (Rvb (wash control) = 1.48 +/- 1.31 pM); format: ADME; settings: dose 8 µg/ml
Escherichia coli [7] = assay: Antimicrobial activity against Escherichia coli W3110 imp4213 assessed as absence of growth; format: functional
Escherichia coli [8] = assay: Antimicrobial activity against Escherichia coli W3110 imp4213 expressing pCA24N mutant assessed as absence of growth; format: functional
Escherichia coli [9] = assay: Antimicrobial activity against Escherichia coli W3110 imp4213 expressing fabI G93V mutant assessed as absence of growth; format: functional
Escherichia coli [10] = assay: Antimicrobial activity against Escherichia coli W3110 imp4213 expressing pCA24N-fabI mutant assessed as absence of growth; format: functional
Escherichia coli [11] = assay: Antimicrobial activity against Escherichia coli W3110 imp4213 expressing pCA24N-fab/ Y156V mutant assessed as absence of growth; format: functional
Escherichia coli [12] = assay: Antimicrobial activity against Escherichia coli W3110 imp4213 expressing pCA24N-fab F203L mutant assessed as absence of growth; format: functional
Escherichia coli [13] = assay: Antimicrobial activity against Escherichia coli W3110 imp4213 expressing pCA24N-fab F204V mutant assessed as absence of growth; format: functional
Escherichia coli [14] = assay: Antimicrobial activity against Escherichia coli W3110 imp4213 expressing fabI392 mutant assessed as absence of growth; format: functional
Escherichia coli [15] = assay: Antimicrobial activity against Escherichia coli W3110 imp4213 expressing fabI392 pCA24N mutant assessed as absence of growth; format: functional
Escherichia coli [16] = assay: Antimicrobial activity against Escherichia coli W3110 imp4213 expressing fabI392 pCA24N fabI mutant assessed as absence of growth; format: functional
Escherichia coli [17] = assay: Antimicrobial activity against Escherichia coli W3110 imp4213 expressing fabI392 pCA24N fabI Y156V mutant assessed as absence of growth; format: functional
Escherichia coli [18] = assay: Antimicrobial activity against Escherichia coli W3110 imp4213 expressing fabI392 pCA24N fabI F203L mutant assessed as absence of growth; format: functional
Escherichia coli [19] = assay: Antimicrobial activity against Escherichia coli W3110 imp4213 expressing fabI392 pCA24N fabI F204V mutant assessed as absence of growth; format: functional
[20] = molecular target: T1, Enoyl-[acyl-carrier-protein] reductase [NADH] FabI (Escherichia coli K-12) (UniProt P0AEK4); assay: Binding affinity to wild type Escherichia coli FabI assessed as change in entropy
T1 sequence (whole entry): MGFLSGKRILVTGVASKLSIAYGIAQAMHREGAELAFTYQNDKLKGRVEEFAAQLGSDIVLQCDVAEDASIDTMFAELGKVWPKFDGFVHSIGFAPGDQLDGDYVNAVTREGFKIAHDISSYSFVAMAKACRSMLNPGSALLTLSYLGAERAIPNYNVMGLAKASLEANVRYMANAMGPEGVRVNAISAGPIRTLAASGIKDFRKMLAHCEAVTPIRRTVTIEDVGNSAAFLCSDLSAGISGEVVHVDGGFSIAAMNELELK

[21] = system: T2, Enoyl-[acyl-carrier-protein] reductase [NADH] FabI (Escherichia coli K-12), P0AEK4 [G93V]; assay: Binding affinity to Escherichia coli FabI G93V mutant assessed as change in entropy
T2 sequence (whole entry): T1 sequence (whole entry) with G93V

[22] = system: T3, Enoyl-[acyl-carrier-protein] reductase [NADH] FabI (Escherichia coli K-12), P0AEK4 [Y156V]; assay: Binding affinity to Escherichia coli FabI Y156V mutant assessed as change in entropy
T3 sequence (whole entry): T1 sequence (whole entry) with Y156V

[23] = molecular target: T1, Enoyl-[acyl-carrier-protein] reductase [NADH] FabI (Escherichia coli K-12); assay: Binding affinity to wild type Escherichia coli FabI assessed as binding free energy
[24] = system: T2, Enoyl-[acyl-carrier-protein] reductase [NADH] FabI (Escherichia coli K-12), P0AEK4 [G93V]; assay: Binding affinity to Escherichia coli FabI G93V mutant assessed as binding free energy
[25] = system: T3, Enoyl-[acyl-carrier-protein] reductase [NADH] FabI (Escherichia coli K-12), P0AEK4 [Y156V]; assay: Binding affinity to Escherichia coli FabI Y156V mutant assessed as binding free energy
[26] = molecular target: T4, Enoyl-acyl-carrier protein reductase (Plasmodium falciparum) (UniProt Q965D5); assay: Binding affinity to Plasmodium falciparum FabI assessed as fluorescence quenching by fluorescence spectral analysis
T4 sequence (whole entry): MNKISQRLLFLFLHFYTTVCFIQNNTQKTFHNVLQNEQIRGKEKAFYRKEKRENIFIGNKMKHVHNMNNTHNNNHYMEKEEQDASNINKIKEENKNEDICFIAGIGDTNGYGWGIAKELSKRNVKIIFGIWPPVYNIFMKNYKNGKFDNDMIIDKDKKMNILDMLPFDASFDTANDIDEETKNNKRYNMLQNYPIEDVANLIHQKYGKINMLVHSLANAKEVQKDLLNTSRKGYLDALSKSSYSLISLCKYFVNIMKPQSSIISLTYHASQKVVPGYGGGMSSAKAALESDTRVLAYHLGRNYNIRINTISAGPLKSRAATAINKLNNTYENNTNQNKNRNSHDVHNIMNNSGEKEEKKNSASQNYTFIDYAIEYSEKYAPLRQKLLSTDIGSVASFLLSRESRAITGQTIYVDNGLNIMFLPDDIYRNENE

Escherichia coli [27] = assay: Antibacterial activity against Escherichia coli BW25113 assessed as effect on growth rate per hour at 8 uM incubated for 24 hrs by microplate reader; format: functional
[28] = molecular target: T5, Enoyl-[acyl-carrier-protein] reductase [NADH] FabI (Escherichia coli K-12, UniProt P0AEK4); assay: Inhibition of Wild type Escherichia coli FabI
T5 sequence (P0AEK4 whole entry): T1 sequence (whole entry)

[29] = molecular target: Enoyl-[acyl-carrier-protein] reductase [NADH] FabI (Escherichia coli K-12, UniProt P0AEK4, F203L); assay: Inhibition of Escherichia coli FabI F203L mutant
[30] = molecular target: Enoyl-[acyl-carrier-protein] reductase [NADH] FabI (Escherichia coli K-12, UniProt P0AEK4, F203V); assay: Inhibition of Escherichia coli FabI F203V mutant
[31] = molecular target: Enoyl-[acyl-carrier-protein] reductase [NADH] FabI (Escherichia coli K-12, UniProt P0AEK4, Y156V); assay: Inhibition of Escherichia coli FabI Y156V mutant
[32] = molecular target: Enoyl-[acyl-carrier-protein] reductase [NADH] FabI (Escherichia coli K-12, UniProt P0AEK4, G93V); assay: Inhibition of Escherichia coli FabI G93V mutant

Sequence of Enoyl-[acyl-carrier-protein] reductase [NADH] FabI (Escherichia coli K-12, UniProt P0AEK4, Y156V) (P0AEK4 2-262 Y156V limits assumed): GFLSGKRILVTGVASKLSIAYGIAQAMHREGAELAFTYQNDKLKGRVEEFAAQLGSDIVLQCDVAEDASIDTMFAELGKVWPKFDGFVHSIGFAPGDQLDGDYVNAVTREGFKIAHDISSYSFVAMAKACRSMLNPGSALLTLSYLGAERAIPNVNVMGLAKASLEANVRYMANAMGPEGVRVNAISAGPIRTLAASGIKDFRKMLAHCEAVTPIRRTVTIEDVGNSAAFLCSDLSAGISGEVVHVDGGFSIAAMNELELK
Sequence of Enoyl-[acyl-carrier-protein] reductase [NADH] FabI (Escherichia coli K-12, UniProt P0AEK4, F203L) (P0AEK4 2-262 F203L limits assumed): as the sequence (P0AEK4 2-262 Y156V limits assumed) above, with V155Y, F202L counted along it
Sequence of Enoyl-[acyl-carrier-protein] reductase [NADH] FabI (Escherichia coli K-12, UniProt P0AEK4, F203V) (P0AEK4 2-262 F203V limits assumed): as the sequence (P0AEK4 2-262 Y156V limits assumed) above, with V155Y, F202V counted along it

## CC(C)=CCC[C@@H](C)c1ccc(C)c(O)c1 [XANTHORRIZOL]
Escherichia coli [1]
  Ratio: 2
Escherichia coli [2]
  Ratio: 2
Escherichia coli [3]
  MIC: 0.125 µg/mL (≈ 0.573 µM)
Escherichia coli [4]
  MIC: 0.05 µg/mL (≈ 0.229 µM)
Plasmodium falciparum
  Activity: inactive
[5]
  Drug uptake: 0.23 pM
[6]
  Drug uptake: 76.65 pM
Escherichia coli [7]
  MIC: 16 µg/mL (≈ 73.3 µM)
Escherichia coli [8]
  MIC: 16 µg/mL (≈ 73.3 µM)
Escherichia coli [9]
  MIC: 16 µg/mL (≈ 73.3 µM)
Escherichia coli [10]
  MIC: 64 µg/mL (≈ 293 µM)
Escherichia coli [11]
  MIC: 128 µg/mL (≈ 586 µM)
Escherichia coli [12]
  MIC: 256 µg/mL (≈ 1170 µM)
Escherichia coli [13]
  MIC: 256 µg/mL (≈ 1170 µM)
Escherichia coli [14]
  MIC: 2 µg/mL (≈ 9.16 µM)
Escherichia coli [15]
  MIC: 2 µg/mL (≈ 9.16 µM)
Escherichia coli [16]
  MIC: 8 µg/mL (≈ 36.6 µM)
Escherichia coli [17]
  MIC: 16 µg/mL (≈ 73.3 µM)
Escherichia coli [18]
  MIC: 16 µg/mL (≈ 73.3 µM)
Escherichia coli [19]
  MIC: 16 µg/mL (≈ 73.3 µM)
[20]
  -TdeltaS: -32.2 kcal/mol
[21]
  -TdeltaS: -38.7 kcal/mol
[22]
  -TdeltaS: -33.2 kcal/mol
[23]
  deltaG: -15 kcal/mol
[24]
  deltaG: -15.1 kcal/mol
[25]
  deltaG: -10.6 kcal/mol
[26]
  Activity: inactive
Escherichia coli [27]
  Activity: 0.354
[28]
  pIC50: 4.77
[29]
  pIC50: 4.12
[30]
  pIC50: 4.24
[31]
  pIC50: 4.42
[32]
  pIC50: 4.70
